{"source": "EPA's ToxValDB 9.5", "key": {"Canidae [1]": {"tested_on": "Canidae", "details": "oral, Dog Other"}, "Neovison sp.": {"tested_on": "Neovison sp.", "details": "repeat dose other; oral; Mink"}, "Coturnix japonica": {"tested_on": "Coturnix japonica", "details": "repeat dose other; oral"}, "Rattus norvegicus [2]": {"tested_on": "Rattus norvegicus"}, "Rattus norvegicus [3]": {"tested_on": "Rattus norvegicus", "details": "short-term; duration: 3 days; injection; subcutaneous; F; Crj:CD; uterus: uterine dry weight (absolute)"}, "Cavia porcellus [4]": {"tested_on": "Cavia porcellus", "details": "acute, duration: 1 days, oral, gavage, M, Guinea Pig"}, "Canidae [5]": {"tested_on": "Canidae", "details": "subchronic; oral; M/F; Dog Other; internal hemorrhage, mortality"}, "Rattus norvegicus [6]": {"tested_on": "Rattus norvegicus", "details": "for LD50: acute"}, "Mus musculus [7]": {"tested_on": "Mus musculus", "details": "oral"}, "Cavia porcellus [8]": {"tested_on": "Cavia porcellus", "details": "acute, oral, Guinea Pig"}, "Oryctolagus sp.": {"tested_on": "Oryctolagus sp.", "details": "acute"}, "Rattus norvegicus [9]": {"tested_on": "Rattus norvegicus", "details": "subchronic; duration: 90 days; oral; gavage; Kidney: Increased weight + Kidney: Nephrotoxicity + Liver: Increased weight"}, "Rattus norvegicus [10]": {"tested_on": "Rattus norvegicus", "details": "subchronic; oral; drinking water; M/F; Fischer 344; Body Weight Changes: decrease + Water Consumption: decrease + Hematology: WBC increase, Lymph increase, Hgb decrease, RBC decrease, MCH …"}, "Rattus norvegicus [11]": {"tested_on": "Rattus norvegicus", "details": "subchronic; oral; drinking water; M/F; nephropathy"}, "Homo sapiens [12]": {"tested_on": "Homo sapiens", "details": "clinical; duration: 4 hours; inhalation; M/F; neurological"}, "Rattus norvegicus [13]": {"tested_on": "Rattus norvegicus", "details": "repeat dose other; oral"}, "Macaca mulatta": {"tested_on": "Macaca mulatta", "details": "repeat dose other; oral"}, "Mus musculus [14]": {"tested_on": "Mus musculus", "details": "chronic; duration: 33 months; oral; drinking water; Brain: Cellular changes + Liver: Cellular changes"}, "Mus musculus [15]": {"tested_on": "Mus musculus", "details": "chronic; oral; M/F; Brain cell vacuolization + liver cell alterations in females"}, "Homo sapiens [16]": {"tested_on": "Homo sapiens", "details": "clinical; oral; M/F; Decreased respiratory function"}, "[17]": {"details": "short-term, duration: 9 days, oral, gavage, Fischer 344"}, "[18]": {"details": "subchronic, duration: 3 months, oral, diet, Wistar"}, "[19]": {"details": "subchronic, duration: 3 months, oral, gavage, Fischer 344"}, "[20]": {"details": "short-term, duration: 11 days, diet, B6C3F1"}, "[21]": {"details": "subchronic, duration: 3 months, gavage, B6C3F1"}}, "note": "Several values for one entry are separate records, joined by “and”; a condition that tells them apart may be missing. Equal entries are not always repeated."}
{"smiles": "CNC(=O)ON=C(CSC)C(C)(C)C", "values": [{"measurement": "NOAEL", "setting": "Canidae [1]; short-term, duration: 8 days, Cholinesterase: Decreased cholinesterase activity", "value": 0.025, "unit": "mg/kg-day"}]}
{"smiles": "ClC1C(Cl)C(Cl)C(Cl)C(Cl)C1Cl", "note": "(centres undefined) [1,2,3,4,5,6-Hexachlorocyclohexane]", "values": [{"measurement": "LOAEL", "setting": "Neovison sp.", "value": 0.14, "unit": "mg/kg-day"}, {"measurement": "NOAEL", "setting": "Neovison sp.", "value": 0.014, "unit": "mg/kg-day"}, {"measurement": "LOAEL", "setting": "Coturnix japonica", "value": 2.25, "unit": "mg/kg-day"}, {"measurement": "NOAEL", "setting": "Coturnix japonica", "value": 0.56, "unit": "mg/kg-day"}]}
{"smiles": "Oc1ccccc1Cc1ccccc1O", "note": "[2,2'-Bisphenol F]", "values": [{"measurement": "LEL", "setting": "Rattus norvegicus [2]; uterotrophic, duration: 3 days, injection, subcutaneous, Active", "value": 46.5, "unit": "mg/kg-day"}, {"measurement": "LOEL", "setting": "Rattus norvegicus [3]", "value": 200, "unit": "mg/kg-day"}, {"measurement": "NOEL", "setting": "Rattus norvegicus [3]", "value": 20, "unit": "mg/kg-day"}, {"measurement": "LOEL", "setting": "Cavia porcellus [4]; BALF eosinophil peroxidase activity + BALF histamine activity + BALF total leukocytes + specific airway resistance (sRaw) - immediate …", "value": 12.5, "unit": "mg/kg-day"}, {"measurement": "LOEL", "setting": "Cavia porcellus [4]; BALF phospholipase A2 activity", "value": 50, "unit": "mg/kg-day"}, {"measurement": "NOEL", "setting": "Cavia porcellus [4]; BALF phospholipase A2 activity", "value": 25, "unit": "mg/kg-day"}]}
{"smiles": "O=C(O)CCCOc1ccc(Cl)cc1Cl", "note": "[2,4-Dichlorophenoxybutyric acid]", "values": [{"measurement": "NOAEL", "setting": "Canidae [1]; subchronic, duration: 90 days, diet, Cardiovascular system: Hemorrhage + Whole body: Increased mortality", "value": 8, "unit": "mg/kg-day"}, {"measurement": "LOAEL", "setting": "Canidae [5]", "value": 25, "unit": "mg/kg-day"}, {"measurement": "NOAEL", "setting": "Canidae [5]", "value": 8, "unit": "mg/kg-day"}]}
{"smiles": "CCCCC(CC)CO", "note": "(centres undefined) [2-Ethyl-1-hexanol]", "values": [{"measurement": "LD50", "setting": "Rattus norvegicus [6]; dermal", "value": "> 3000", "unit": "mg/kg"}, {"measurement": "LD50", "setting": "Rattus norvegicus [6]; oral, gavage, albino", "value": 7000, "unit": "mg/kg"}, {"measurement": "NOAEL", "setting": "Rattus norvegicus [6]; developmental, dermal, occlusive, Fischer 344", "value": "> 2520", "unit": "mg/kg-day"}, {"measurement": "NOAEL", "setting": "Rattus norvegicus [6]; developmental, duration: 10 days, dermal, occlusive, Fischer 344", "value": "> 2520", "unit": "mg/kg-day"}, {"measurement": "NOAEL", "setting": "Rattus norvegicus [6]; developmental, oral, gavage, Wistar", "value": 650, "unit": "mg/kg-day"}, {"measurement": "NOAEL", "setting": "Rattus norvegicus [6]; repeat dose other, inhalation, Wistar", "value": "0.648 mg/L and 0.32 mg/L"}, {"measurement": "NOAEL (% diet)", "setting": "Rattus norvegicus [6]; repeat dose other, oral, diet, Fischer 344", "value": 0.46}, {"measurement": "LOAEL", "setting": "Rattus norvegicus [6]; repeat dose other, oral, gavage, Fischer 344", "value": 100, "unit": "mg/kg-day"}, {"measurement": "NOAEL", "setting": "Rattus norvegicus [6]; reproduction developmental, duration: 10 days, oral, gavage, F, Wistar", "value": 130, "unit": "mg/kg-day"}, {"measurement": "NOAEL", "setting": "Rattus norvegicus [6]; reproduction developmental, oral, gavage, F, Wistar", "value": 130, "unit": "mg/kg-day"}, {"measurement": "NOAEL", "setting": "Rattus norvegicus [6]; short-term, duration: 9 days, oral, drinking water, Fischer 344", "value": 636, "unit": "ppm"}, {"measurement": "LOAEL", "setting": "Rattus norvegicus [6]; [17]", "value": 100, "unit": "mg/kg-day"}, {"measurement": "NOAEL", "setting": "Rattus norvegicus [6]; [17]", "value": 83, "unit": "mg/kg-day"}, {"measurement": "NOAEL", "setting": "Rattus norvegicus [6]; short-term, duration: 14 days, inhalation, Wistar", "value": 0.32, "unit": "mg/L"}, {"measurement": "LOAEL", "setting": "Rattus norvegicus [6]; short-term, duration: 21 days, oral, gavage, Fischer 344", "value": 100, "unit": "mg/kg-day"}, {"measurement": "LOAEL (% diet)", "setting": "Rattus norvegicus [6]; [18]", "value": 0.25}, {"measurement": "NOAEL (% diet)", "setting": "Rattus norvegicus [6]; [18]", "value": 0.05}, {"measurement": "LOAEL", "setting": "Rattus norvegicus [6]; [19]", "value": 250, "unit": "mg/kg-day"}, {"measurement": "NOAEL", "setting": "Rattus norvegicus [6]; [19]", "value": "125 mg/kg-day and ≤ 250 mg/kg-day"}, {"measurement": "NOAEL", "setting": "Rattus norvegicus [6]; subchronic, duration: 13 weeks, oral, gavage", "value": 250, "unit": "mg/kg-day"}, {"measurement": "NOAEL", "setting": "Mus musculus [7]; developmental, duration: 18 days, diet, CD1", "value": "> 191", "unit": "mg/kg-day"}, {"measurement": "NOAEL (% diet)", "setting": "Mus musculus [7]; repeat dose other, diet, B6C3F1", "value": "≥ 0.44 and ≤ 0.66"}, {"measurement": "NOAEL", "setting": "Mus musculus [7]; reproduction developmental, duration: 18 days, diet, F, CD1", "value": "> 191", "unit": "mg/kg-day"}, {"measurement": "NOAEL", "setting": "Mus musculus [7]; reproduction developmental, diet, F, CD1", "value": "> 191", "unit": "mg/kg-day"}, {"measurement": "LOAEL", "setting": "Mus musculus [7]; [20]", "value": "≥ 1000 mg/kg-day and ≤ 1500 mg/kg-day"}, {"measurement": "LOAEL (% diet)", "setting": "Mus musculus [7]; [20]", "value": "≥ 0.66 and ≤ 1.32"}, {"measurement": "NOAEL (% diet)", "setting": "Mus musculus [7]; [20]", "value": "≥ 0.44 and ≤ 0.66"}, {"measurement": "NOAEL", "setting": "Mus musculus [7]; short-term, duration: 11 days, diet, F, B6C3F1", "value": "2650 mg/kg-day and 1000 mg/kg-day"}, {"measurement": "NOAEL", "setting": "Mus musculus [7]; short-term, duration: 11 days, gavage, B6C3F1", "value": 100, "unit": "mg/kg-day"}, {"measurement": "LOAEL", "setting": "Mus musculus [7]; [21]", "value": "≥ 250 mg/kg-day and ≤ 500 mg/kg-day"}, {"measurement": "NOAEL", "setting": "Mus musculus [7]; [21]", "value": "≥ 125 mg/kg-day and ≤ 250 mg/kg-day"}, {"measurement": "NOAEL", "setting": "Mus musculus [7]; subchronic, duration: 3 months, gavage, F, B6C3F1", "value": 250, "unit": "mg/kg-day"}, {"measurement": "NOAEL", "setting": "Mus musculus [7]; subchronic, duration: 3 months, gavage, M, B6C3F1", "value": 125, "unit": "mg/kg-day"}, {"measurement": "LD50", "setting": "Cavia porcellus [8]", "value": "≥ 1220 mg/kg and ≤ 2820 mg/kg"}, {"measurement": "LD50", "setting": "Cavia porcellus [8]; gavage", "value": 600, "unit": "mg/kg"}, {"measurement": "LD50", "setting": "Oryctolagus sp.; dermal", "value": "> 2600 mg/kg and 1980 mg/kg"}, {"measurement": "LD50", "setting": "Oryctolagus sp.; oral", "value": "1180 mg/kg and 1470 mg/kg"}]}
{"smiles": "CC(C)=O", "note": "[Acetone]", "values": [{"measurement": "NOEL", "setting": "Rattus norvegicus [9]", "value": 100, "unit": "mg/kg-day"}, {"measurement": "NOEL", "setting": "Rattus norvegicus [10]", "value": 380, "unit": "mg/kg-day"}, {"measurement": "NOEL", "setting": "Rattus norvegicus [2]; Hershberger, duration: 10 days, oral, gavage, Sprague-Dawley, inactive + Negative + Negative + neither + see comment", "value": 1000, "unit": "mg/kg-day"}, {"measurement": "LOAEL", "setting": "Rattus norvegicus [11]", "value": 1700, "unit": "mg/kg-day"}, {"measurement": "NOAEL", "setting": "Rattus norvegicus [11]", "value": 900, "unit": "mg/kg-day"}, {"measurement": "LOAEL", "setting": "Homo sapiens [12]", "value": 563, "unit": "mg/m3"}, {"measurement": "LOAEL", "setting": "Rattus norvegicus [13]", "value": 50, "unit": "mg/kg-day"}, {"measurement": "NOAEL", "setting": "Rattus norvegicus [13]", "value": 10, "unit": "mg/kg-day"}]}
{"smiles": "Clc1cc(Cl)cc(-c2cc(Cl)cc(Cl)c2)c1", "note": "[Aroclor 1248]", "values": [{"measurement": "LOAEL", "setting": "Macaca mulatta", "value": 0.1, "unit": "mg/kg-day"}, {"measurement": "NOAEL", "setting": "Macaca mulatta", "value": 0.01, "unit": "mg/kg-day"}]}
{"smiles": "Nc1ccc(-c2ccc(N)cc2)cc1", "note": "[C.I. Azoic Diazo Component 112]", "values": [{"measurement": "LOAEL", "setting": "Mus musculus [14]", "value": 2.7, "unit": "mg/kg-day"}, {"measurement": "LOAEL", "setting": "Mus musculus [15]", "value": 2.7, "unit": "mg/kg-day"}]}
{"smiles": "CC(C)NCC(O)COc1cccc2[nH]c3ccccc3c12", "note": "(centres undefined) [Carazolol]", "values": [{"measurement": "NOEL", "setting": "Homo sapiens [16]", "value": 0.0005, "unit": "mg/kg-day"}]}
